According to US12643887B2, “Heterocyclic derivatives with cardiomyocyte proliferation activity for treatment of heart diseases” (Tongji University, priority 2019, dated 2026):

Tests used:
Format in all cases: biochemical
human CLK1 = target: T1, human CLK1 (Homo sapiens, UniProt P49759); experiment: CLK1 enzyme assay (ADP-Glo); settings: ADP-Glo, ATP 10 μM; read-out: CLK1 IC50
T1 construct: Recombinant human CLK1 (129-end); GST (N); purchased SignalChem C57-11G; host or cells: Sf9 insect cells
Procedure: The ability of compounds to inhibit human CLK1 kinase activities was determined using a commercially available ADP-Glo™ Kinase Assay kit (Promega, Cat #V9102) according to the manufacturer's protocol.
(§1) Recombinant human CLK1 (129-end) (expressed in Sf9 insect cells with an N-terminal GST tag) was purchased from SignalChem (Cat #C57-11G). Recombinant full length human MBP (expressed in E. Coli cells with an N-terminal GST tag.) was purchased from SignalChem (Cat #M42-54G). This assay, run in a 384-well plate format, is a generic method for measuring kinase activities using an ADP-Glo Kinase Assay Kit. The basic assay procedure involves two steps: (1) Enzymatic step: inhibitors are incubated with the kinase and then ATP (included in the ADP-Glo Kinase Assay Kit) and the MBP protein are added to start the enzymatic reaction; (2) Detection step: after the kinase reaction, first ADP-Glo™ Reagent is added to terminate the kinase reaction and deplete the remaining ATP. Second, the Kinase Detection Reagent is added to simultaneously convert ADP to ATP and allow the newly synthesized ATP to be measured using a luciferase/luciferin reaction. The light generated is measured using a luminometer.
Briefly, CLK1 (16 nM) in the enzymatic buffer solutions (40 mM Tris, pH 7.5, 20 mM MgCl2, 0.1 mg/ml BSA, 50 μM DTT) were mixed with various concentrations of inhibitors (dissolved in 100% DMSO). These solutions were incubated for 30 minutes at 25° C., and subsequently a mixture of substrate peptide and ATP was added with the final peptide and ATP concentrations at 2 μM and 10 μM, respectively. The final reaction mixture of enzyme-substrate-ATP-compound was incubated for 60 minutes at 25° C.
(§2) Afterwards ADP-Glo™ Reagent was added and the mixture was incubated at 25° C. for 60 minutes. Then Kinase Detection Reagent was added and the final mixture was incubated at 25° C. for 60 minutes. The luminescence signal of the final solution was measured on an Envision instrument (PerkinElmer). The percent (%) inhibition at each concentration of a compound is calculated relative to the luminescence signal in the Max and Min control wells contained within each assay plate. […] The concentrations and percent inhibition values for a test compound are plotted and the concentration of the compound required to achieve 50% inhibition (IC50) is determined with a four-parameter logistic dose response equation.

human DYRK1A = target: T2, human DYRK1A (Homo sapiens, UniProt Q13627); experiment: DYRK1A enzyme assay (ADP-Glo); settings: ADP-Glo, ATP 60 μM; read-out: DYRK1A IC50
T2 construct: Recombinant full-length DYRK1A (expressed in E. Coli cells with an N-terminal GST tag); GST (N); purchased SignalChem D09-10G; host or cells: E. coli
Procedure: The ability of compounds to inhibit human DYRK1A kinase activities was determined using a commercially available ADP-Glo™ Kinase Assay kit (Promega, Cat #V9102) according to the manufacturer's protocol.
as §1, with “full-length DYRK1A” for “human CLK1 (129-end)”, “E. Coli” for “Sf9 insect”, “#D09-10G). The DYRK substrate peptide (DYRKtide, sequence: […])” for “#C57-11G). Recombinant full length human MBP (expressed in E. Coli cells with an N-terminal GST tag.)”, “#D96-58).” for “#M42-54G).”, “DYRKtide” for “MBP protein”
(§3) Briefly, DYRK1A (3 nM) in the enzymatic buffer solutions (40 mM Tris, pH 7.5, 20 mM MgCl2, 0.1 mg/ml BSA, 50 μM DTT) were mixed with various concentrations of inhibitors (dissolved in 100% DMSO). These solutions were incubated for 30 minutes at 25° C., and subsequently a mixture of substrate peptide and ATP was added with the final peptide and ATP concentrations at 20 μM and 60 μM, respectively. The final reaction mixture of enzyme-substrate-ATP-compound was incubated for 60 minutes at 25° C.
as §2

human GSK3 beta = target: T3, human GSK3 beta (Homo sapiens, UniProt P49841); experiment: GSK3 beta enzyme assay (ADP-Glo); settings: ATP 25 μM, read-out: GSK3b IC50
T3 construct: Recombinant full-length human GSK3 beta (expressed in Sf9 insect cells with an N-terminal His tag); His (N); purchased SignalChem G09-10H; host or cells: Sf9 insect cells
Procedure: 1. GSK3 Beta Enzyme Assay
The ability of compounds to inhibit human GSK3 beta kinase activities was determined using a commercially available ADP-Glo™ Kinase Assay kit (Promega, Cat #V9102) according to the manufacturer's protocol. The ADP-Glo™ Kinase Assay is a luminescent ADP detection assay that provides a universal, homogeneous, high-throughput screening method to measure kinase activity by quantifying the amount of ADP produced during a kinase reaction. The ADP-Glo™ Kinase Assay can be used to monitor the activity of virtually any ADP-generating enzymes (e.g., kinases or ATPases).
as §1, with “Recombinant full-length” for “Recombinant”, “GSK3 beta” for “CLK1 (129-end)”, “His” for “GST”, “#G09-10H). The GSK3 substrate peptide (sequence: […](pS)EDEEE)” for “#C57-11G). Recombinant full length human MBP (expressed in E. Coli cells with an N-terminal GST tag.)”, “#G50-58).” for “#M42-54G).”, “GSK3 substrate peptide” for “MBP protein”
as §3, with “Briefly, GSK3 beta (4” for “Briefly, DYRK1A (3”, “at 13” for “at 20”, “and 25” for “and 60”
as §2

T3 sequence (P49841 whole entry): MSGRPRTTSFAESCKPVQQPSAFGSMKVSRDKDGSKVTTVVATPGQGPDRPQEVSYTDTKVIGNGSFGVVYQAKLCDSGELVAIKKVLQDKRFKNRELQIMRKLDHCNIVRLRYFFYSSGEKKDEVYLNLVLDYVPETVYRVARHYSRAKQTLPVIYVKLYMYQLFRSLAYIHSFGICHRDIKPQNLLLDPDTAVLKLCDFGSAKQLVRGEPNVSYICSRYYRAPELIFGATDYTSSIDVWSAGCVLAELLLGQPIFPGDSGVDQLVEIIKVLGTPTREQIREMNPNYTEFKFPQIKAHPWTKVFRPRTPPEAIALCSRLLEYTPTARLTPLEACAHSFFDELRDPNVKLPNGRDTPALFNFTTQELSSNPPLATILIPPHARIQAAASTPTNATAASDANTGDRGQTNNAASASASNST
T1 sequence (P49759 129-484 limits assumed): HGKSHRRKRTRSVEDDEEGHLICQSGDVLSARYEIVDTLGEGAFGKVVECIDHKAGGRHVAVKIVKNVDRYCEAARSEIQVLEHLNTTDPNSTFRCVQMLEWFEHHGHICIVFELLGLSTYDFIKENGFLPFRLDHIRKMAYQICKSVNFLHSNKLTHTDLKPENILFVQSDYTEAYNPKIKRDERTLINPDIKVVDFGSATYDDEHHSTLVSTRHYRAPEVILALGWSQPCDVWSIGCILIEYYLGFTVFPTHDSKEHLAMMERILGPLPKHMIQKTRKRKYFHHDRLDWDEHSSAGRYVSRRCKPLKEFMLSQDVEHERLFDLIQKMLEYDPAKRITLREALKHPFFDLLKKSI

IC50 (human GSK3 beta)	Structure (SMILES)	IC50 (human CLK1)	IC50 (human DYRK1A)
1000 to 10000 nM	CN(Cc1ccccc1)C1=N/C(=C\c2ccc3ncsc3c2)C(=O)N1 [Example 28, (Z)-5-(benzo[d]thiazol-6-ylmethylene)-2-(benzyl(methyl)amino)-3,5-dihydro-4H-imidazol-4-one]	100 to 1000 nM	100 to 1000 nM
> 10000 nM	O=C1NC(Nc2ccc3ncsc3c2)=N/C1=C\c1ccc2c(c1)OCO2 [Example 47, (Z)-5-(benzo[d][1,3]dioxol-5-ylmethylene)-2-(benzo[d]thiazol-6-ylamino)-3,5-dihydro-4H-imidazol-4-one]	> 10000 nM	> 10000 nM
> 10000 nM	O=C1NC(NC23CC4CC(CC(C4)C2)C3)=N/C1=C\c1ccc2scnc2c1 [Example 50, (Z)-2-(adamantan-1-ylamino)-5-(benzo[d]thiazol-5-ylmethylene)-3,5-dihydro-4H-imidazol-4-one]	> 10000 nM	1000 to 10000 nM
1000 to 10000 nM	O=C1NC(NCc2ccccc2)=N/C1=C\c1ccc2ncsc2c1 [Example 31, (Z)-5-(benzo[d]thiazol-6-ylmethylene)-2-(benzylamino)-3,5-dihydro-4H-imidazol-4-one]		
	CN1C(=O)/C(=C/c2ccc3c(c2)OCO3)N=C1N(C)c1ccccc1 [Example 3, (Z)-5-(benzo[d][1,3]dioxol-5-ylmethylene)-3-methyl-2-(methyl(phenyl)amino)-3,5-dihydro-4H-imidazol-4-one]	1000 to 10000 nM	1000 to 10000 nM
	CN(C1=N/C(=C\c2ccc3c(c2)OCO3)C(=O)N1)c1ccccc1 [Example 1, (Z)-5-(benzo[d][1,3]dioxol-5-ylmethylene)-2-(methyl(phenyl)amino)-3,5-dihydro-4H-imidazol-4-one]	100 to 1000 nM	100 to 1000 nM
	O=C1/C(=C/c2ccc3c(c2)OCO3)N=C(N(Cc2ccccc2)c2ccccc2)N1Cc1ccccc1 [Example 2, (Z)-5-(benzo[d][1,3]dioxol-5-ylmethylene)-3-benzyl-2-(benzyl(phenyl)amino)-3,5-dihydro-4H-imidazol-4-one]	1000 to 10000 nM	1000 to 10000 nM
100 to 1000 nM	O=C1NC(Nc2ccc3nccnc3c2)=N/C1=C\c1ccc2ncsc2c1 [Example 82, (Z)-5-(benzo[d]thiazol-6-ylmethylene)-2-(quinoxalin-6-ylamino)-3,5-dihydro-4H-imidazol-4-one]	< 100 nM	
1000 to 10000 nM	O=C1NC(NCC2CC2)=N/C1=C\c1ccc2ncsc2c1 [Example 34, (Z)-5-(benzo[d]thiazol-6-ylmethylene)-2-((cyclopropylmethyl)amino)-3,5-dihydro-4H-imidazol-4-one]		
> 10000 nM	O=C1NC(Nc2ccc3ncsc3c2)=N/C1=C\c1ccc2ncsc2c1 [Example 48, (Z)-2-(benzo[d]thiazol-6-ylamino)-5-(benzo[d]thiazol-6-ylmethylene)-3,5-dihydro-4H-imidazol-4-one]	< 100 nM	
> 10000 nM	O=C1NC(Nc2ccc(Cl)cc2)=N/C1=C\c1ccc2ncsc2c1 [Example 40, (Z)-5-(benzo[d]thiazol-6-ylmethylene)-2-((4-chlorophenyl)amino)-3,5-dihydro-4H-imidazol-4-one]	< 100 nM	
> 10000 nM	O=C1NC(Nc2ccc3ncsc3c2)=N/C1=C\c1ccc2scnc2c1 [Example 57, (Z)-5-(benzo[d]thiazol-5-ylmethylene)-2-(benzo[d]thiazol-6-ylamino)-3,5-dihydro-4H-imidazol-4-one]	< 100 nM	

Structure (SMILES)	IC50 (human GSK3 beta)	IC50 (human CLK1)	IC50 (human DYRK1A)
O=C1NC(Nc2ccccc2)=N/C1=C\c1ccc2nn[nH]c2c1 [Example 56, (Z)-5-((1H-benzo[d][1,2,3]triazol-6-yl)methylene)-2-(phenylamino)-3,5-dihydro-4H-imidazol-4-one]	1000 to 10000 nM	< 100 nM	< 100 nM
CN(C1=N/C(=C\c2ccc3c(c2)OCO3)C(=O)N1)c1ccc(N)cc1 [Example 37, (Z)-2-((4-aminophenyl)(methyl)amino)-5-(benzo[d][1,3]dioxol-5-ylmethylene)-3,5-dihydro-4H-imidazol-4-one]	> 10000 nM	1000 to 10000 nM	1000 to 10000 nM
Cn1ncc2ccc(/C=C3\N=C(Nc4ccccc4)NC3=O)cc21 [Example 79, 5-((1-methyl-1H-indazol-6-yl)methylene)-2-(phenylamino)-3,5-dihydro-4H-imidazol-4-one]	> 10000 nM	> 10000 nM	> 10000 nM
O=C1NC(Nc2ccccc2)=N/C1=C\c1ccc2ncccc2c1 [Example 53, (Z)-2-(phenylamino)-5-(quinolin-6-ylmethylene)-3,5-dihydro-4H-imidazol-4-one]	> 10000 nM	< 100 nM	< 100 nM
O=C1/C(=C/c2ccc3ncsc3c2)N=C(N(Cc2ccccc2)c2ccccc2)N1Cc1ccccc1 [Example 42, (Z)-5-(benzo[d]thiazol-6-ylmethylene)-3-benzyl-2-(benzyl(phenyl)amino)-3,5-dihydro-4H-imidazol-4-one]	> 10000 nM	> 10000 nM	> 10000 nM
O=C1NC(Nc2ccccc2)=N/C1=C\c1ccc2ncsc2c1 [Example 6, (Z)-5-(benzo[d]thiazol-6-ylmethylene)-2-(phenylamino)-3,5-dihydro-4H-imidazol-4-one]	100 to 1000 nM	< 100 nM	
COc1ccc(NC2=N/C(=C\c3ccc4ncsc4c3)C(=O)N2)cc1 [Example 25, (Z)-5-(benzo[d]thiazol-6-ylmethylene)-2-((4-methoxyphenyl)amino)-3,5-dihydro-4H-imidazol-4-one]	> 10000 nM	< 100 nM	
